How the values were obtained:
cotton = experiment: Postemergent control of plant species; assay type: in vivo, Gossypium spp.; conditions: Gossypium hirsutum, post-emergence, 336 h, read-out: percent postemergent control
In short: (§1)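 Foliar spray, 2-4 leaf stage, greenhouse. Formulation: acetone solution (2x final conc.) mixed 1:1 with water + 0.1% surface active agent. ~2 wk hold, watered as needed. Readout = % growth reduction vs untreated same-species controls.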

rape = experiment: Postemergent control of plant species; assay type: in vivo, Brassica napus; conditions: Brassica napus, post-emergence, 336 h, read-out: percent postemergent control
In short: as §1

soybean = experiment: Postemergent control of plant species; assay type: in vivo, Glycine max.; conditions: Glycine max, post-emergence, 336 h, read-out: percent postemergent control
In short: as §1

sugar beet = experiment: Postemergent control of plant species; assay type: in vivo, Beta saccharifera; conditions: Beta vulgaris, post-emergence, 336 h, read-out: percent postemergent control
In short: as §1

cocklebur = experiment: Postemergent control of plant species; assay type: in vivo, Xanthium spp.; conditions: Xanthium strumarium, post-emergence, 336 h, read-out: percent postemergent control
In short: as §1

jimsonweed = experiment: Postemergent control of plant species; assay type: in vivo, Datura stramonium; conditions: Datura stramonium, post-emergence, 336 h, read-out: percent postemergent control
In short: as §1

annual morning glory = experiment: Postemergent control of plant species; assay type: in vivo, Ipomoea spp.; conditions: Ipomoea, post-emergence, 336 h, read-out: percent postemergent control
In short: as §1

pigweed = experiment: Postemergent control of plant species; assay type: in vivo, Amaranthus spp.; conditions: Amaranthus retroflexus, post-emergence, 336 h, read-out: percent postemergent control
In short: as §1

velvetleaf = experiment: Postemergent control of plant species; assay type: in vivo, Abutilon theophrasti; conditions: Abutilon theophrasti, post-emergence, 336 h, read-out: percent postemergent control
In short: as §1

corn = experiment: Postemergent control of plant species; assay type: in vivo, Zea mays; conditions: Zea mays, post-emergence, 336 h, read-out: percent postemergent control
In short: as §1

rice = experiment: Postemergent control of plant species; assay type: in vivo, Oryza sativa; conditions: Oryza sativa, post-emergence, 336 h, read-out: percent postemergent control
In short: as §1

sorghum = experiment: Postemergent control of plant species; assay type: in vivo, Sorghum vulgare; conditions: Sorghum, post-emergence, 336 h, read-out: percent postemergent control
In short: as §1

wheat = experiment: Postemergent control of plant species; assay type: in vivo, Triticum aestivum; conditions: Triticum aestivum, post-emergence, 336 h, read-out: percent postemergent control
In short: as §1

barnyardgrass = experiment: Postemergent control of plant species; assay type: in vivo, Echinochloa crusgalli; conditions: Echinochloa crus-galli, post-emergence, 336 h, read-out: percent postemergent control
In short: as §1

crabgrass = experiment: Postemergent control of plant species; assay type: in vivo, Digitaria spp.; conditions: Digitaria sanguinalis, post-emergence, 336 h, read-out: percent postemergent control
In short: as §1

yellow foxtail = experiment: Postemergent control of plant species; assay type: in vivo, Setaria lutescens; conditions: Setaria, post-emergence, 336 h, read-out: percent postemergent control
In short: as §1

johnson grass = experiment: Postemergent control of plant species; assay type: in vivo, Sorghum halepense; conditions: Sorghum halepense, post-emergence, 336 h, read-out: percent postemergent control
In short: as §1

wild oats = experiment: Postemergent control of plant species; assay type: in vivo, Avena fatua; conditions: Avena fatua, post-emergence, 336 h, read-out: percent postemergent control
In short: as §1

yellow nutsedge = experiment: Postemergent control of plant species; assay type: in vivo, Cyperus esculentus; conditions: Cyperus, post-emergence, 336 h, read-out: percent postemergent control
In short: as §1

[1] = tested on: nitrification of ammonium nitrogen; experiment: Suppression of nitrification of ammonium nitrogen in soil; conditions: 27° C.
In short: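 Soil (20 g) moistened to its 1/3 bar tension value, mixed with test chemical and incubated sealed for two weeks at 27° C. Nitrate extracted with ammonium sulfate solution and measured by nitrate-specific ion electrode; value given as % NH4-N remaining.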

Compound	plant injury at 500 ppm (cotton)	plant injury at 500 ppm (rape)	plant injury at 500 ppm (soybean)	plant injury at 500 ppm (sugar beet)	pest or weed control at 500 ppm (cocklebur)	pest or weed control at 500 ppm (jimsonweed)	pest or weed control at 500 ppm (annual morning glory)	pest or weed control at 500 ppm (pigweed)	pest or weed control at 500 ppm (velvetleaf)	plant injury at 500 ppm (corn)	plant injury at 500 ppm (rice)	plant injury at 500 ppm (sorghum)	plant injury at 500 ppm (wheat)	pest or weed control at 500 ppm (barnyardgrass)	pest or weed control at 500 ppm (crabgrass)	pest or weed control at 500 ppm (yellow foxtail)	pest or weed control at 500 ppm (johnson grass)	pest or weed control at 500 ppm (wild oats)	pest or weed control at 500 ppm (yellow nutsedge)	% NH4-N Remaining After 2 Weeks Incubation ([1]; 1 ppm)	also measured
Cc1cc(C)n2nc(S(=O)(=O)Nc3c(C)nn(C)c3C(F)(F)F)nc2n1 [Compound 247]	0%	70%	70%	70%	20%	20%	0%	70%	40%	0%	0%	0%	0%	0%	0%	0%	0%	0%	0%	58%	% NH4-N Remaining After 2 Weeks Incubation ([1]; 0.06 ppm): 58%; % NH4-N Remaining After 2 Weeks Incubation ([1]; 0.25 ppm): 47%; % NH4-N Remaining After 2 Weeks Incubation ([1]; 4 ppm): 82%
O=S(=O)(Nc1ccccc1C(F)(F)F)c1nc2ncccn2n1 [Compound 136]	30%	80%	30%	80%	98%	30%	40%	90%	70%	0%	0%	0%	0%	0%	0%	0%	0%	0%	0%	67%	% NH4-N Remaining After 2 Weeks Incubation ([1]; 0.01 ppm): 0%; % NH4-N Remaining After 2 Weeks Incubation ([1]; 0.1 ppm): 10%; % NH4-N Remaining After 2 Weeks Incubation ([1]; 10 ppm): 98%
